According to patent US8901118B2, “Compounds and methods for kinase modulation, and indications therefor” (Plexxikon Inc., priority 2010, dated 2014):

Test system: SKNSH cells
Test: SKNSH (human neuroblastoma) cell proliferation assay (ATPlite)
Type: cell-based
Details: SK-N-SH, read-out: Inhibition of Cell Proliferation IC50, SKNSH
Experimental: Compounds are assessed in a variety of cell based assays. For example BaF3 cells engineered with any of BCR-FMS, BCR-KIT, BCR-FLT3, BCR-NTRK1, BCR-NTRK2, and BCR-NTRK3, are used in cell proliferation assays to assess inhibitory activity of Fms, Kit, Flt-3, TrkA, TrkB, and TrkC, respectively. An MV-4-11 (leukemia) cell proliferation assay is used to assess inhibitory activity in Flt-3, and SKNSH (human neuroblastoma) cell proliferation assay is used to assess efficacy of Fms/Trk inhibitors. Additional cells may be assayed similarly to assess the efficacy of Fms/Trk inhibitors, such as MiaPaCa (human pancreatic cancer) and Capan-1 (human pancreatic carcinoma) cells. Reagent and assay conditions are as follows: • BaF3 cells: • Maintained in RPMI containing 10% FBS, 1% PenStrep, 1% NEAA, and 1% L-Glutamine, supplemented with 1 mg/mL G418 and 5% WEHI-CM (or recombinant murine IL-3). • Confluent cells are split 1:50 to 1:100 every 3-4 days. • MV-4-11 cells: • Maintained in Iscove's Modified Dulbecco's Medium containing 10% FBS. • Confluent cells are split 1:4 every 3-4 days. • SKNSH cells: RPMI containing 10% FBS. On day 1, cells are counted, then centrifuged in a conical tube for 5 minutes at 1000 rpm. The supernatant is removed and cells are re-suspended as follows: • BaF3: resuspend in growth media +1 mg/mL G418 (without WEHFIL-3) to 2×10^5 cells/mL. • MV-4-11: resuspend in growth media to 5×10^5 cells/mL. • SKNSH: resuspend in growth media to 2×10^4 cells/mL. The cells are plated (50 μL, 150 μL for SKNSH cells) in each well of a 96-well dish (Corning 3610) and incubated at 37° C. in 5% CO2 overnight, cells plated to a final concentration of cells as follows: • BaF3: 10,000 cells per well. • MV-4-11: 25,000 cells per well. • SKNSH: 3,000 cells per well. On day 2, compound at a maximum concentration of 5 mM is serially diluted 1:3 for a total of 8 point titration with DMSO as a control. A 1 μL aliquot of each dilution point is added to 249 μL growth media and 50 μL is added to a well containing cells, providing 10 μM compound for the maximum concentration point. The cells are incubated for 3 days at 37° C. in 5% CO2. For SKNSH cells, a 0.75 μL aliquot of appropriate dilution in DMSO is added to 150 μL of cells. On day 5, ATPlite 1 step Luminescence Assay System (Perkin Elmer #6016739) is brought to room temperature along with the cell cultures. ATPlite is added to each well as follows: • BaF3: 25 μL per well. • MV-4-11: 40 μL per well. • SKNSH: 20 μL per well. The cells are incubated at room temperature for 10 minutes, then luminescence is read on Safire reader. The measured luminescence correlates directly with cell number, such that the reading as a function of compound concentration is used to determine the IC50 value.
It is understood that the results of these assays may vary as assay conditions are varied. Inhibition levels determined under the conditions described herein represent a relative activity for the compounds tested under the specific conditions employed. The cell based assays are likely to show variability due to the complexity of the system and the sensitivity thereof to any changes in the assay conditions. […] Results for compounds that are tested and show substantially no inhibition below the highest tested concentration are represented as “-” in the tables below. In some instances, the compounds were not tested in all of the assays, or assay results were not valid, as indicated by NA in the tables below.

| IC50 [nM] | Structure (SMILES) |
| --- | --- |
| < 10000 | CCc1ccc(Nc2ccc(C(=O)c3c[nH]c4ncnc(NC5CCC(F)(F)CC5)c34)c(F)n2)cn1 [Compound P-4096, [4-[(4,4-difluorocyclohexyl)amino]-7H-pyrrolo[2,3-d]pyrimidin-5-yl]-[6-[(6-ethyl-3-pyridyl)amino]-2-fluoro-3-pyridyl]methanone] |
| < 10000 | COc1ccc(Nc2ccc(C(=O)c3c[nH]c4ncnc(NCC(F)(F)F)c34)c(F)n2)cn1 [Compound P-4084, [2-fluoro-6-[(6-methoxy-3-pyridyl)amino]-3-pyridyl]-[4-(2,2,2-trifluoroethylamino)-7H-pyrrolo[2,3-d]pyrimidin-5-yl]methanone] |
| < 1000 | CNc1ncnc2[nH]cc(C(=O)c3ccc(Nc4ccc(C(F)(F)F)nc4)nc3F)c12 [Compound P-4092, [2-fluoro-6-[[6-(trifluoromethyl)-3-pyridyl]amino]-3-pyridyl]-[4-(methylamino)-7H-pyrrolo[2,3-d]pyrimidin-5-yl]methanone] |
| < 1000 | CNc1ncnc2[nH]cc(C(=O)c3ccc(NC4CCCCC4)nc3F)c12 [Compound P-4102, [6-(cyclohexylamino)-2-fluoro-3-pyridyl]-[4-(methylamino)-7H-pyrrolo[2,3-d]pyrimidin-5-yl]methanone] |
| < 1000 | CCCCNc1ncnc2[nH]cc(C(=O)c3ccc(Nc4ccc(CC)nc4)nc3F)c12 [Compound P-4100, [4-(butylamino)-7H-pyrrolo[2,3-d]pyrimidin-5-yl]-[6-[(6-ethyl-3-pyridyl)amino]-2-fluoro-3-pyridyl]methanone] |
| < 10000 | CCCNc1ncnc2[nH]cc(C(=O)c3ccc(Nc4cncc(OC)c4)nc3F)c12 [Compound P-4105, [2-fluoro-6-[(5-methoxy-3-pyridyl)amino]-3-pyridyl]-[4-(propylamino)-7H-pyrrolo[2,3-d]pyrimidin-5-yl]methanone] |
| < 10000 | CC(C)Nc1ncnc2[nH]cc(C(=O)c3ccc(NC4CCCCC4)nc3Cl)c12 [Compound P-4109, [2-chloro-6-(cyclohexylamino)-3-pyridyl]-[4-(isopropylamino)-7H-pyrrolo[2,3-d]pyrimidin-5-yl]methanone] |
| < 1000 | CNc1ncnc2[nH]cc(C(=O)c3ccc(Nc4ccc(C5CC5)nc4)nc3F)c12 [Compound P-4094, [6-[(6-cyclopropyl-3-pyridyl)amino]-2-fluoro-3-pyridyl]-[4-(methylamino)-7H-pyrrolo[2,3-d]pyrimidin-5-yl]methanone] |
| < 10000 | CNc1ncnc2[nH]cc(C(=O)c3ccc(NC4CCC(F)(F)CC4)nc3Cl)c12 [Compound P-4058, [2-chloro-6-[(4,4-difluorocyclohexyl)amino]-3-pyridyl]-[4-(methylamino)-7H-pyrrolo[2,3-d]pyrimidin-5-yl]methanone] |
| < 10000 | CNc1ncnc2[nH]cc(C(=O)c3ccc(NC4CCC(F)(F)CC4)nc3)c12 [Compound P-4089, [6-[(4,4-difluorocyclohexyl)amino]-3-pyridyl]-[4-(methylamino)-7H-pyrrolo[2,3-d]pyrimidin-5-yl]methanone] |
| < 1000 | COc1cncc(Nc2ccc(C(=O)c3c[nH]c4ncnc(NC5CC5)c34)c(F)n2)c1 [Compound P-4107, [4-(cyclopropylamino)-7H-pyrrolo[2,3-d]pyrimidin-5-yl]-[2-fluoro-6-[(5-methoxy-3-pyridyl)amino]-3-pyridyl]methanone] |
| < 1000 | CCc1ccc(Nc2ccc(C(=O)c3c[nH]c4ncnc(NC5CCCC5)c34)c(F)n2)cn1 [Compound P-4099, [4-(cyclopentylamino)-7H-pyrrolo[2,3-d]pyrimidin-5-yl]-[6-[(6-ethyl-3-pyridyl)amino]-2-fluoro-3-pyridyl]methanone] |
| < 1000 | COc1cncc(Nc2ccc(C(=O)c3c[nH]c4ncnc(NC5CCCCC5)c34)c(F)n2)c1 [Compound P-4104, [4-(cyclohexylamino)-7H-pyrrolo[2,3-d]pyrimidin-5-yl]-[2-fluoro-6-[(5-methoxy-3-pyridyl)amino]-3-pyridyl]methanone] |
| < 10000 | Fc1cc(Cc2c[nH]c3ncnc(NC4CC4)c23)cnc1NC1CCC(F)(F)CC1 [Compound P-4127, N-cyclopropyl-5-[[6-[(4,4-difluorocyclohexyl)amino]-5-fluoro-3-pyridyl]methyl]-7H-pyrrolo[2,3-d]pyrimidin-4-amine] |
| < 1000 | CNc1ncnc2[nH]cc(C(=O)c3ccc(NC4CCC(F)(F)CC4)nc3F)c12 [Compound P-4063, [6-[(4,4-difluorocyclohexyl)amino]-2-fluoro-3-pyridyl]-[4-(methylamino)-7H-pyrrolo[2,3-d]pyrimidin-5-yl]methanone] |
| > 1000 | COc1cncc(Nc2ccc(C(=O)c3c[nH]c4ncnc(NCC(F)(F)F)c34)c(F)n2)c1 [Compound P-4103, [2-fluoro-6-[(5-methoxy-3-pyridyl)amino]-3-pyridyl]-[4-(2,2,2-trifluoroethylamino)-7H-pyrrolo[2,3-d]pyrimidin-5-yl]methanone] |
| < 1000 | CCc1ccc(Nc2ccc(C(=O)c3c[nH]c4ncnc(N)c34)c(F)n2)cn1 [Compound P-4065, (4-amino-7H-pyrrolo[2,3-d]pyrimidin-5-yl)-[6-[(6-ethyl-3-pyridyl)amino]-2-fluoro-3-pyridyl]methanone] |
| < 10000 | Cc1ccc(Nc2ccc(C(=O)c3c[nH]c4ncnc(NCC(F)(F)F)c34)c(F)n2)cn1 [Compound P-4112, [2-fluoro-6-[(6-methyl-3-pyridyl)amino]-3-pyridyl]-[4-(2,2,2-trifluoroethylamino)-7H-pyrrolo[2,3-d]pyrimidin-5-yl]methanone] |
| < 1000 | COc1ccc(Nc2ccc(C(=O)c3c[nH]c4ncnc(NC(C)(C)C)c34)c(F)n2)cn1 [Compound P-4055, [4-(tert-butylamino)-7H-pyrrolo[2,3-d]pyrimidin-5-yl]-[2-fluoro-6-[(6-methoxy-3-pyridyl)amino]-3-pyridyl]methanone] |
| < 100 | CCNc1ncnc2[nH]cc(C(=O)c3ccc(Nc4ccc(C5CC5)nc4)nc3F)c12 [Compound P-4060, [6-[(6-cyclopropyl-3-pyridyl)amino]-2-fluoro-3-pyridyl]-[4-(ethylamino)-7H-pyrrolo[2,3-d]pyrimidin-5-yl]methanone] |
| < 1000 | CC(C)Nc1ncnc2[nH]cc(C(=O)c3ccc(NC4CCCCC4)nc3F)c12 [Compound P-4101, [6-(cyclohexylamino)-2-fluoro-3-pyridyl]-[4-(isopropylamino)-7H-pyrrolo[2,3-d]pyrimidin-5-yl]methanone] |
| < 100 | O=C(c1ccc(Nc2ccc(C(F)(F)F)nc2)nc1F)c1c[nH]c2ncnc(NC3CC3)c12 [Compound P-4091, [4-(cyclopropylamino)-7H-pyrrolo[2,3-d]pyrimidin-5-yl]-[2-fluoro-6-[[6-(trifluoromethyl)-3-pyridyl]amino]-3-pyridyl]methanone] |
| < 1000 | CCc1ccc(Nc2ccc(C(=O)c3c[nH]c4ncnc(NC5CCC5)c34)c(F)n2)cn1 [Compound P-4095, [4-(cyclobutylamino)-7H-pyrrolo[2,3-d]pyrimidin-5-yl]-[6-[(6-ethyl-3-pyridyl)amino]-2-fluoro-3-pyridyl]methanone] |
| < 1000 | COc1ccc(Nc2ccc(C(=O)c3c[nH]c4ncnc(NC5CCC(F)(F)CC5)c34)c(F)n2)cn1 [Compound P-4056, [4-[(4,4-difluorocyclohexyl)amino]-7H-pyrrolo[2,3-d]pyrimidin-5-yl]-[2-fluoro-6-[(6-methoxy-3-pyridyl)amino]-3-pyridyl]methanone] |
| > 1000 | CNc1ncnc2[nH]cc(C(=O)c3ccc(Nc4cncc(OC)c4)nc3F)c12 [Compound P-4108, [2-fluoro-6-[(5-methoxy-3-pyridyl)amino]-3-pyridyl]-[4-(methylamino)-7H-pyrrolo[2,3-d]pyrimidin-5-yl]methanone] |
